Measurements published in patent US9957253B2, “Triaminopyrimidine compounds useful for preventing or treating malaria” (MMV MEDICINES FOR MALARIA VENTURE, priority 2014, dated 2018).
Structures can show the parent of a compound that is named as a salt. Where two headings read alike, the source gives them in different places.

Columns and labels:
[1] = Blood:Plasma (BP) ratio, human; assay type: in vitro ADME
[2] = biological target: T1, human CYP 1A2 (Homo sapiens, UniProt P05177); assay: CYP inhibition assay, CYP 1A2; assay type: in vitro ADME
T1 sequence (P05177 1-516): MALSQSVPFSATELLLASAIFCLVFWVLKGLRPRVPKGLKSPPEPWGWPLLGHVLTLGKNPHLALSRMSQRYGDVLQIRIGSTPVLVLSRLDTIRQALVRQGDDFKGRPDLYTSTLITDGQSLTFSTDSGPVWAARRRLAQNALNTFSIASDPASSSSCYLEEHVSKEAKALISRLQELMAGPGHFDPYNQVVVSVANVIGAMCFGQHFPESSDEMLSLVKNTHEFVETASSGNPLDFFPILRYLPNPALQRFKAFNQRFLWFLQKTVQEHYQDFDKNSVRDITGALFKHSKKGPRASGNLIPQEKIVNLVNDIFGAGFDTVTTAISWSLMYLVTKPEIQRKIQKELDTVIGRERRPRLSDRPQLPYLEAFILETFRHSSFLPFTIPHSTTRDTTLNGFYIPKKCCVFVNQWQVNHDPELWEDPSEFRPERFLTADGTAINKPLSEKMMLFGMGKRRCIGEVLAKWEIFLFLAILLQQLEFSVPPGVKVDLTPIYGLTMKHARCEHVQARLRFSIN
Method: This study was conducted using specific substrates for 5 major human CYP isozymes. These substrates were used as a cocktail (phenacetin, diclofenac, S-mephenytoin, bufuralol and midazolam which are predominantly metabolised by CYP 1A2, 2C9, 2C19, 2D6 and 3A4/5, respectively) at concentrations equivalent to their respective Km values. LC-MS-MS (MRM mode) was used to follow the formation of the CYP specific metabolites. A decrease in the formation of the metabolites in peak area to vehicle control was used to calculate the IC50 value. […] Test compound was used at 6 different concentrations ([…]) to estimate IC50.
The incubation was carried out in 96 deep well plates. Mixture of 180 μL of 20 mg/mL HLM and 90 μL of substrate cocktail solution was added to 15840 μL of phosphate buffer and 179 μL of this mixture was mixed with 1 μL of the test compound, inhibitor cocktail solution or vehicle in each well. The final concentration of DMSO:ACN in the assay mix was 0.3:0.7% v/v. The incubation plate was placed into the water bath and pre-warmed at 37° C. for 5 min before the reactions were started by the addition of 20 μL of 10 mmol/L NADPH solution in phosphate buffer. After the addition of NADPH, the incubation plate was incubated at 37° C. for a further 5 min. The reaction was quenched by the addition of 1 volume (200 μL) of cold ACN containing 3% formic acid and 40 nmol/L verapamil. The plates were kept on ice for 20 min and then centrifuged at 4000 rpm for 30 min to precipitate protein. The supernatant 180 μL was transferred to the analysis plate for LC/MS/MS analysis.

[3] = biological target: T2, human CYP 2C19 (Homo sapiens, UniProt P33261); assay: Time dependent CYP inhibition assay, CYP 2C19; assay type: in vitro ADME
T2 construct: Mixture of 180 μL of 20 mg/mL HLM and 90 μL of substrate cocktail solution; from tissue; host or cells: human liver microsomes (HLM)

[4] = tested on: chloroquine-resistant K1 strain of P. falciparum; assay: In vitro antiplasmodial activity (SYBR I), K1 strain; assay type: cell-based, Plasmodium falciparum; details: Plasmodium falciparum
Method: Measuring In Vitro Antiplasmodial Activity
The test samples were tested in duplicate on two separate occasions against chloroquine sensitive NF54 (MRA-1000, MR4, ATCC, Manassas, Va.) and chloroquine-resistant K1 strains of P. falciparum. A modified method of Trager and Jensen was employed to maintain continuous in vitro cultures of asexual blood stages of P. falciparum (Trageret al., 1976, Science, 193, 673-675). Quantitative assessment of antiplasmodial activity in vitro was determined using the SYBR I method as described earlier (Johnson et al., 2007, Antimicrob. Agents Chemother., 51, 1926-1933).
The percent inhibition with respect to the drug-free control was plotted against the logarithm of drug concentration. The growth inhibition curves were fitted by nonlinear regression using the sigmoidal dose-response (variable slope) formula to yield the concentration-response curves. […] Chloroquine diphosphate (CQ) (Sigma), artesunate (Sigma), and pyrimethamine were used as reference drugs in all experiments.

[5] = biological target: CYP3A4 (Homo sapiens, UniProt P08684); assay: Time dependent CYP inhibition assay, CYP 3A4; assay type: in vitro ADME
[6] = Caco-2 permeability assay; assay type: in vitro ADME; details: human; Caco-2, 10 μM, pH 6.5/7.4
Method: Caco-2 Permeability Assay
Permeability in a Caco-2 monolayer was determined at 10 μM. The Caco-2 cell monolayers were washed once with HBSS. TEER was measured both before and after performing all the transport experiments. Papp was measured in apical A to basolateral B direction. Transport buffer, 800 μL (HBSS, pH 7.4) was first dispensed to the basal side of the monolayer. The assay was then initiated by adding 200 μL of compound solution to the apical side (all test compounds were diluted in HBSS, pH 6.5, with 1% DMSO as co-solvent). Two μL and 200 μL of samples were withdrawn, before and at 45 and 120 min post addition of test compound, from the apical donor compartment and the basolateral receiver compartment, respectively. The transwell plates were incubated at 37° C. on a shaker at 480 rpm inside the incubator. All samples were immediately analysed by LC-MS/MS. A passive permeability was determined by complete chemical inhibition of the three major efflux transporters, ABCB1 (P-gp), ABCG2 (BCRP) and ABCC2 (MRP2), in Caco-2 cells using a cocktail of chemical inhibitors: quinidine (P-gp), sulfasalazine (BCRP) and benzbromarone (MRP2).
The apparent permeability coefficient (Papp) was calculated according to the following equation: Papp=(ΔQ/Δt)/(A×CD)[cm/s] (1) where (ΔQ/Δt) […] is the cumulative amount of test compound transported over time to the basolateral (receiver) side, A is the surface area of the monolayer membrane (cm^2) and CD is the average drug concentration in the donor chamber over the period for which (ΔQ/Δt) was determined.

[7] = human liver microsomes, substrate cocktail, read-out: IC50 CYP 1A2
[8] = K1 strain, chloroquine-resistant, read-out: Pf IC50—K1

T2 sequence (P33261 whole entry): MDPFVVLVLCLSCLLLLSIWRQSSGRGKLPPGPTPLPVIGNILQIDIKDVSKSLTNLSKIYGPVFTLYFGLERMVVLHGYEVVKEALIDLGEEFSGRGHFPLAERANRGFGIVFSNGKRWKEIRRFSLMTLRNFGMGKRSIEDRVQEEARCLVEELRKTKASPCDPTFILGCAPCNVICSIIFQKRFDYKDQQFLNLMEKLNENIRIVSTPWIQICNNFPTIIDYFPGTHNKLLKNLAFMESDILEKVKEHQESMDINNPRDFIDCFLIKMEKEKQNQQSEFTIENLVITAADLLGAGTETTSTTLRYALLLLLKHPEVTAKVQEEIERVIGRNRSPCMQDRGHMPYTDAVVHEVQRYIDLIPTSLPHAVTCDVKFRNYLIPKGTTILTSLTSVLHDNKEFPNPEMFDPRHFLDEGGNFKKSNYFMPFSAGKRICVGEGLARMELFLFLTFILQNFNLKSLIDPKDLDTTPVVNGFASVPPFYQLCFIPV
Chain of CYP3A4 (P08684 whole entry): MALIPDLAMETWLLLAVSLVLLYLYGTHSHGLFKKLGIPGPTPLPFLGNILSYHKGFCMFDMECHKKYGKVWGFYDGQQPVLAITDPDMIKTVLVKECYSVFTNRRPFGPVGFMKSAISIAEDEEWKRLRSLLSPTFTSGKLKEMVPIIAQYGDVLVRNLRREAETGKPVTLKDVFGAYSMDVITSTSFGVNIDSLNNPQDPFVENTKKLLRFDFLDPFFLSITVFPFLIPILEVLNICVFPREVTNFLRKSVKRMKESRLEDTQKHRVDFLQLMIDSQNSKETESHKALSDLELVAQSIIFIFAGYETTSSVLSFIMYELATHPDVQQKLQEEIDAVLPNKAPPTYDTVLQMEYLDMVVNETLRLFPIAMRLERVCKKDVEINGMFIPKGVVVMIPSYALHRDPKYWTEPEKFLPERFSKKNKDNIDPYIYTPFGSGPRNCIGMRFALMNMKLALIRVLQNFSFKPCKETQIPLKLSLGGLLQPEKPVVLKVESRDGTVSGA

| Structure (SMILES) | BP ratio [1] | IC50 [2] [µM] | IC50 [3] [µM] | IC50 ([4]; K1, read-out: Pf IC50—K1) [µM] | IC50 [5] [µM] | Papp A→B at 120 min, 10 μM [6] [×10⁻⁶ cm/s] | IC50 [2, 7] [µM] | IC50 [4, 8] [µM] |
| --- | --- | --- | --- | --- | --- | --- | --- | --- |
| CCc1cc(Nc2ncc(N3CCN[C@H](C)C3)c(Nc3cc(C)n(C)n3)n2)nc(C)c1F [Example 7, (R)—N4-(1,5-dimethyl-1H-pyrazol-3-yl)-N2-(4-ethyl-5-fluoro-6-methylpyridin-2-yl)-5-(3-methylpiperazin-1-yl)pyrimidine-2,4-diamine dihydrochloride] | 1.3 | > 30 | > 56 | 0.045 | > 56 | 5 | – | – |
| Cc1nc(Nc2ncc(N3CCN(C)[C@H](C)C3)c(Nc3cc(C)n(C)n3)n2)cc(C2CC2)c1F [Example 13, (R)—N2-(4-cyclopropyl-5-fluoro-6-methylpyridin-2-yl)-N4-(1,5-dimethyl-1H-pyrazol-3-yl)-5-(3,4-dimethylpiperazin-1-yl)pyrimidine-2,4-diamine] | 1.1 | – | > 56 | – | > 56 | 19.5 | > 30 | 0.015 |
| Cc1nc(Nc2ncc(N3CCN[C@H](C)C3)c(Nc3cnn(C)n3)n2)cc(C2CC2)c1Cl [Example 10, (R)—N2-(5-chloro-4-cyclopropyl-6-methylpyridin-2-yl)-N4-(2-methyl-2H-1,2,3-triazol-4-yl)-5-(3-methylpiperazin-1-yl)pyrimidine-2,4-diamine dihydochloride] | 1.8 | – | > 56 | – | > 56 | 3.8 | > 30 | 0.019 |
